Values after ≈ are worked out from the molar mass of the structure shown. Read-outs that look alike come from different tables or passages of the source. No end group written: not given here.
Columns and labels:
S. epidermidis C621 = type: cell-based, Staphylococcus epidermidis; details: for S. epidermidis C621 MIC: mean of three, 16 to 20 hours at 35° C.; for MIC S. epidermis C621: Table 13, in µg/mL
in vitro [1] = type: cell-based, human; details: human, human red blood cells, pH 7, hemolytic assay, concentration at 50% hemolysis, 1 hour at 37° C.; read-out: LD50
S. pneumoniae C719 = test: Antimicrobial assays II, NCCLS broth microdilution MIC; type: cell-based, Streptococcus pneumoniae; details: mean of three, in µg/mL
S. pyogenes ATCC19615 = test: as above; type: cell-based, Streptococcus pyogenes; details: mean of three, in µg/mL
P. aeruginosa H374 [2] = type: cell-based, Pseudomonas aeruginosa; details: for MIC Cm-comb.: MIC of chloramphenicol with peptide at ¼ MIC; for MIC Nal-comb.: MIC of nalidixic acid with peptide at ¼ MIC; for FIC Index: 0.5 or less = synergy
Outline: (§1)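 Synergy against efflux-mutant strains: two-fold dilutions of nalidixic acid or chloramphenicol tested with peptide held at ¼ of its MIC.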

P. aeruginosa = type: cell-based, Pseudomonas aeruginosa; details: P. aeruginosa H744; MIC of nalidixic acid with peptide at ¼ MIC
Outline: as §1

S. aureus (MRSA) = type: cell-based, Staphylococcus aureus; details: for S. aureus (MRSA) MIC: mean of three, 16 to 20 hours at 35° C.; for MIC S. aureus SAP0017: Table 13, strain SAP0017, in µg/mL
S. pyogenes M76 = test: Antimicrobial assays II, NCCLS broth microdilution MIC; type: cell-based, Streptococcus pyogenes; details: mean of three; 16 to 20 hours at 35° C.
MCF7 = test: Anti-cancer assay, MTT, LD50; type: cell-based; details: MCF7 breast adenocarcinoma line, MTT, 24 hours with peptide
Description: (§2) Numbers are LD50 values (μg/mL).

HeLaS3 = test: Anti-cancer assay, MTT, LD50; type: cell-based; details: 24 hours with peptide, cervical carcinoma
Description: as §2

BMKC = test: Anti-cancer assay, MTT, LD50; type: cell-based; details: BMKC cloned melanoma line, 24 hours with peptide
Description: as §2

PC3 = test: Anti-cancer assay, MTT, LD50; type: cell-based; details: 24 hours with peptide, prostate adenocarcinoma
Description: as §2

H1299 = test: Anti-cancer assay, MTT, LD50; type: cell-based; details: 24 hours with peptide, lung large cell carcinoma
Description: as §2

SW480 = test: Anti-cancer assay, MTT, LD50; type: cell-based; details: SW480 colon adenocarcinoma line, 24 hours with peptide
Description: as §2

P. acne ATCC 6919 = test: Antimicrobial assays II, NCCLS broth microdilution MIC; type: cell-based, Propionibacterium acnes; details: mean of three, in µg/mL
WI38 = details: MTT, 24 hours with peptide; normal fibroblast line
S. pneumoniae C718 = test: Antimicrobial assays II, NCCLS broth microdilution MIC; type: cell-based, Streptococcus pneumoniae; details: mean of three
P. aeruginosa H774 = type: cell-based, Pseudomonas aeruginosa; details: P. aeruginosa H744; nalidixic acid + peptide at ¼ MIC; 0.5 or less = synergy
Outline: as §1

in vitro [3] = details: human, WI38 normal lung fibroblast cells, LD50 WI38, WI38 normal lung fibroblast line, MTT, 24 hours with peptide
[4] = test system: yeast (Saccharomyces cerevisiae); test: Antimicrobial assay I, yeast assay in RPMI 1640; type: cell-based; details: RPMI 1640 media
[5] = test system: Pseudomonas aeruginosa ATCC 9027; test: Antimicrobial assay I, MIC by OD measurement; type: cell-based; details: 37° C. for 24 hours, absorbance 620 nm
[6] = test system: Staphylococcus aureus ATCC 6538; test: Antimicrobial assay I, MIC by OD measurement; type: cell-based; details: 37° C. for 24 hours, absorbance 620 nm
[7] = test system: Pseudomonas aeruginosa 105663; type: cell-based; details: Table 9; in µg/mL
[8] = test system: Pseudomonas aeruginosa 100609; type: cell-based; details: Table 9; in µg/mL
P. aeruginosa H374 [9] = type: cell-based, Pseudomonas aeruginosa; details: in µg/mL
Candida albicans 105 = type: cell-based; details: Table 13; in µg/mL
S. typhimurium 14028S = type: cell-based, Salmonella typhimurium; details: Table 12
[10] = test system: Pseudomonas aeruginosa H187; type: cell-based; details: in µg/mL
[11] = test system: Candida glabrata ATCC15126; test: Antimicrobial assays II, NCCLS broth microdilution MIC; type: cell-based; details: Table 13; in µg/mL
E. coli UB1005 = type: cell-based, Escherichia coli; details: Table 12

Compound | S. epidermidis C621 MIC (S. epidermidis C621) | S. pneumoniae MIC (S. pneumoniae C719) | S. pyogenes MIC (S. pyogenes ATCC19615) | S. aureus (MRSA) MIC (S. aureus (MRSA)) | S. pyogenes M76 MIC (S. pyogenes M76) | P. acne MIC (P. acne ATCC 6919) | S. pneumoniae MIC (S. pneumoniae C718) | MIC P. aeruginosa Tb 105663 [7] | MIC S. epidermis C621 (S. epidermidis C621) | MIC S. aureus SAP0017 (S. aureus (MRSA)) | MIC P. aeruginosa Tb 100609 [8] | MIC P. aeruginosa H374 (P. aeruginosa H374 [9]; Table 9) | MIC P. aeruginosa H374 (P. aeruginosa H374 [9]; Table 12) | MIC C. albicans 105 (Candida albicans 105) | MIC S. typhimurium 14028S (S. typhimurium 14028S) | MIC P. aeruginosa H187 ([10]; Table 9) | MIC P. aeruginosa H187 ([10]; Table 12) | MIC C. glabrata ATCC15126 [11] | MIC E. coli UB1005 (E. coli UB1005) | also measured
FAKKFAKKFKKFAKKFAKFAFAF-NH2 [P301, reference compound] | 4 µg/mL | 8 | 8 | 8 µg/mL | 8 µg/mL | 2 | > 128 µg/mL |  |  |  |  |  |  |  |  |  |  |  |  | HC50 at 1 h (in vitro [1]): 10 µg/mL; MIC Cm-comb. (P. aeruginosa H374 [2]): 16 µg/mL; MIC Nal-comb. (P. aeruginosa H374 [2]): 625 µg/mL; MIC Nal-comb. (P. aeruginosa): 624 µg/mL; LD50 MCF7 (MCF7): 64 µg/mL; HeLaS3 LD50 (HeLaS3): 170 µg/mL; LD50 BMKC (BMKC): 140 µg/mL; PC3 LD50 (PC3): 45 µg/mL; H1299 LD50 (H1299): 77 µg/mL; LD50 SW480 (SW480): 76 µg/mL; WI38 LD50 (WI38): 66 µg/mL
VALALKALKKLLKKLKKLAKKAL-NH2 [P510] | 4 µg/mL | 16 | 8 | 8 µg/mL | 8 µg/mL | 2 | 64 µg/mL |  |  |  |  |  |  |  |  |  |  |  |  | HC50 at 1 h (in vitro [1]): 10 µg/mL; MIC Cm-comb. (P. aeruginosa H374 [2]): 4 µg/mL; MIC Nal-comb. (P. aeruginosa H374 [2]): 625 µg/mL; FIC Index (P. aeruginosa H374 [2]; chloramphenicol + peptide at ¼ MIC): 0.5; FIC Index (P. aeruginosa H374 [2]; nalidixic acid + peptide at ¼ MIC, FIC=0.25+MIC comb/MIC alone): 0.375; MIC Nal-comb. (P. aeruginosa): 624 µg/mL; FIC Index (P. aeruginosa H774): 1.25
CC[C@H](C)[C@H](NC(=O)CNC(=O)[C@H](CC(C)C)NC(=O)[C@H](CCCCN)NC(=O)[C@H](C)NC(=O)[C@H](CC(C)C)NC(=O)[C@H](C)NC(=O)[C@@H](NC(=O)[C@H](CCCCN)NC(=O)[C@H](C)NC(=O)[C@@H](NC(=O)[C@@H](N)CCCCN)[C@@H](C)CC)C(C)C)C(=O)NCC(=O)N[C@@H](C)C(=O)N[C@H](C(=O)N[C@@H](CC(C)C)C(=O)N[C@@H](CCCCN)C(=O)N[C@H](C(=O)N[C@@H](CC(C)C)C(=O)N[C@H](C(=O)N[C@H](C(=O)NCC(=O)N[C@@H](CC(C)C)C(N)=O)[C@@H](C)O)[C@@H](C)O)C(C)C)C(C)C [P105] | 8 µg/mL | 32 | 16 | 32 µg/mL | 16 µg/mL | 16 | 64 µg/mL |  |  |  |  |  |  |  |  |  |  |  |  | CC50 at 24 h (in vitro [3]): 430 µg/mL (≈ 189 µM); LD50 MCF7 (MCF7): 635 µg/mL; HeLaS3 LD50 (HeLaS3): > (> indicates greater than 1000); H1299 LD50 (H1299): > (> indicates greater than 1000); LD50 SW480 (SW480): > (> indicates greater than 1000); yeast (MIC or MFC) [4]: > (> indicates greater than 200 μg/mL); paerug9027 (MIC) [5]: 200 µg/mL; staph6538 (MIC) [6]: 200 µg/mL; WI38 LD50 (WI38): 430 µg/mL
CC(C)C[C@H](NC(=O)[C@H](C)NC(=O)[C@H](CC(C)C)NC(=O)[C@H](CCCCN)NC(=O)[C@H](C)NC(=O)[C@H](CC(C)C)NC(=O)[C@H](CCCCN)NC(=O)[C@H](CCCCN)NC(=O)[C@H](C)NC(=O)[C@H](CC(C)C)NC(=O)[C@H](CCCCN)NC(=O)[C@H](C)NC(=O)[C@H](CC(C)C)NC(=O)[C@H](CCCCN)NC(=O)[C@H](CCCCN)NC(=O)[C@H](C)NC(=O)[C@@H](N)C(C)C)C(N)=O [P50 (32)] |  |  |  |  |  |  |  | 8 | 4 | 4 | 4 | 4 | 4 | 16 | 4 µg/mL (≈ 2.21 µM) | 4 | 4 | 16 | 2 µg/mL (≈ 1.11 µM) | 
FALLKALLKKAL-NH2 [P177 (138)] |  |  |  |  |  |  |  | 32 | 4 | 8 | 32 | 16 | 16 | 16 | 16 µg/mL | 16 | 16 | 16 | 8 µg/mL | 
FAKLLAKALKKFAL-NH2 [P119 (81)] |  |  |  |  |  |  |  | 16 | 4 | 8 | 16 | 8 | 8 | 16 | 8 µg/mL | 16 | 16 | 16 | 4 µg/mL | 
KWKLFKKKTKLFKKFAKKLAKKL-NH2 [P73 (49)] |  |  |  |  |  |  |  | 16 | 4 | 16 | 16 | 8 | 8 | 32 | 16 µg/mL | 16 | 16 | 128 | 8 µg/mL | 
FAKKLAKKLKKLAKKLAKKWKL-OH [P72 (48)] |  |  |  |  |  |  |  | 8 | 4 | 16 | 8 | 4 | 4 | 32 | 8 µg/mL | 8 | 8 | 64 | 2 µg/mL | 
FAKFLAKFLKKAL-NH2 [P111 (75)] |  |  |  |  |  |  |  | 32 | 4 | 8 | 16 | 8 | 8 | 32 | 16 µg/mL | 8 | 8 | 32 | 16 µg/mL | 
FAKLLAKLAKKVL-NH2 [P124 (86)] |  |  |  |  |  |  |  | 64 | 4 | 8 | 64 | 16 | 16 | 16 | 16 µg/mL | 32 | 32 | 16 | 16 µg/mL | 
